In the test the test system is PK1 neuroblastoma cells exposed to TPrP. Put plainly: cells. In kind it is cell-based. As to conditions: Neuroblastoma cell, 96 h, read-out: TPrP EC50.
`CN(C)S(=O)(=O)c1ccc(-c2nc(Nc3ccc(S(N)(=O)=O)cc3)sc2CO)cc1` [SR-34775, 4-(5-(Hydroxymethyl)-2-((4-sulfamoylphenyl)amino)thiazol-4-yl)-N,N-dimethylbenzenesulfonamide]: the half-maximal effective concentration (EC50) is 60 nM. For `CCN(CC)S(=O)(=O)c1ccc(-c2nc(Nc3ccc(S(N)(=O)=O)cc3)sc2CO)cc1` [SR-34774, N,N-diethyl-4-(5-(hydroxymethyl)-2-((4-sulfamoylphenyl)amino)thiazol-4-yl)benzenesulfonamide], the EC50 stood at 150 nM. Turning to `CCOCc1sc(Nc2ccc(S(C)(=O)=O)cc2)nc1-c1ccnc(C)c1` [SR-35365, 5-(Ethoxymethyl)-4-(2-methylpyridin-4-yl)-N-(4-(methylsulfonyl)phenyl)thiazol-2-amine], the concentration for a half-maximal effect (EC50) was 450 nM. Turning to `COc1cc(-c2csc(Nc3ccc(S(C)(=O)=O)c(F)c3)n2)ccn1` [SR-34975, N-(3-fluoro-4-(methylsulfonyl)phenyl)-4-(2-methoxypyridin-4-yl)thiazol-2-amine], the concentration for a half-maximal effect (EC50) turned out to be 170 nM. In the case of `CCN(CC)S(=O)(=O)c1ccc(-c2csc(Nc3ccc(S(C)(=O)=O)cc3)n2)cc1` [SR-34966, N,N-diethyl-4-(2-((4-(methylsulfonyl)phenyl)amino)thiazol-4-yl)benzenesulfonamide], the EC50 is > 500 nM.

For the compound `NS(=O)(=O)c1ccc(Nc2nc(-c3ccc(S(=O)(=O)N4CCOCC4)cc3)c(CO)s2)cc1` [SR-34764, 4-((5-(Hydroxymethyl)-4-(4-(morpholinosulfonyl)phenyl)thiazol-2-yl)amino)benzenesulfonamide], the EC50 amounted to 60 nM. As to `CC(C)NS(=O)(=O)c1ccc(-c2csc(Nc3ccc(S(C)(=O)=O)cc3)n2)cc1` [SR-34967, N-isopropyl-4-(2-((4-(methylsulfonyl)phenyl)amino)thiazol-4-yl)benzenesulfonamide], the EC50 stood at 500 nM. Regarding `CS(=O)(=O)c1ccc(Nc2nc(-c3ccnc(Cl)c3)c(CO)s2)cc1F` [SR-34977, (4-(2-Chloropyridin-4-yl)-2-((3-fluoro-4-(methylsulfonyl)phenyl)amino)thiazol-5-yl)methanol], the concentration giving a half-maximal response (EC50) worked out at 360 nM.

`COc1cc(-c2nc(Nc3ccc(S(C)(=O)=O)c(C(F)(F)F)c3)sc2CO)cc(OC)n1` [SR-34991, (4-(2,6-Dimethoxypyridin-4-yl)-2-((4-(methylsulfonyl)-3-(trifluoromethyl)phenyl)amino)thiazol-5-yl)methanol]: the EC50 is > 500 nM. `COCc1sc(Nc2ccc(S(C)(=O)=O)cc2)nc1-c1ccnc(C)c1` [SR-35364, 5-(Methoxymethyl)-4-(2-methylpyridin-4-yl)-N-(4-(methylsulfonyl)phenyl)thiazol-2-amine]: the EC50 is 230 nM. Regarding `COc1cc(-c2nc(Nc3ccc(S(C)(=O)=O)c(C(F)(F)F)c3)sc2CO)ccn1` [SR-34990, (4-(2-Methoxypyridin-4-yl)-2-((4-(methylsulfonyl)-3-(trifluoromethyl)phenyl)amino)thiazol-5-yl)methanol], the EC50 is 480 nM.

`Cc1cc(-c2nc(Nc3ccc(S(C)(=O)=O)cc3)sc2C=O)ccn1` [SR-35367, 4-(2-Methylpyridin-4-yl)-2-((4-(methylsulfonyl)phenyl)amino)thiazole-5-carbaldehyde]: the concentration giving a half-maximal response (EC50) amounted to 230 nM. Take `COc1cc(-c2nc(Nc3ccc(S(C)(=O)=O)c(F)c3)sc2CO)cc(OC)n1` [SR-34981, (4-(2,6-Dimethoxypyridin-4-yl)-2-((3-fluoro-4-(methylsulfonyl)phenyl)amino)thiazol-5-yl)methanol]: the EC50 is > 500 nM. On to `COc1cc(-c2nc(Nc3ccc(S(C)(=O)=O)c(F)c3)sc2CO)ccn1` [SR-34980, (2-((3-Fluoro-4-(methylsulfonyl)phenyl)amino)-4-(2-methoxypyridin-4-yl)thiazol-5-yl)methanol], for which the EC50 worked out at 320 nM. As to `CNS(=O)(=O)c1ccc(-c2nc(Nc3ccc(S(C)(=O)=O)cc3)sc2CO)cc1` [SR-34968, 4-(5-(Hydroxymethyl)-2-((4-(methylsulfonyl)phenyl)amino)thiazol-4-yl)-N-methylbenzenesulfonamide], the EC50 is > 500 nM.

Values taken from US20240150338A1, “COMPOUNDS AND USE THEREOF FOR TREATMENT OF NEURODEGENERATIVE, DEGENERATIVE AND METABOLIC DISORDERS” (University of Florida Research Foundation, Incorporated, priority 2021, published 2024).
